Several values for one entry are separate records, joined by “and”; a condition that tells them apart may be missing. Equal entries are not always repeated.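 Exposure lasted 48 hours, with cells grown in 96-well plates and compounds tested at five concentrations. Here, GI50 denotes the concentration required for 50% inhibition of growth. TGI: concentration producing complete growth inhibition.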
Columns and labels:
Assay in all cases: NCI tumour cell line growth inhibition, 48 h
[1] = tested on: CAKI-1 renal
[2] = tested on: UO-31 renal
[3] = tested on: HOP-62 NSCLC
[4] = tested on: NCI-H226 lung
[5] = tested on: NCI-H460 lung
[6] = tested on: T-47D breast
[7] = tested on: OVCAR-4 ovarian
[8] = tested on: DU-145 prostate
[9] = tested on: KM12 colon
[10] = tested on: COLO 205 colon

Structure (SMILES)	GI50 [1]	TGI [1]	GI50 [2]	TGI [2]	GI50 [3]	TGI [3]	GI50 [4]	TGI [4]	GI50 [5]	TGI [5]	GI50 [6]	TGI [6]	GI50 [7]	TGI [7]	GI50 [8]	TGI [8]	GI50 [9]	TGI [9]	GI50 [10]	TGI [10]
CCCCc1ccc2nc(NC(=O)OC)[nH]c2c1	0.0314 µM	12.9 µM	12.1 µM	> 100 µM	0.126 µM	26.6 µM	0.0429 µM	3.32 µM	0.0378 µM	6.17 µM	0.0392 µM	> 100 µM	1.7 µM	> 69.2 µM	0.0406 µM	0.278 µM	0.0337 µM	1.3 µM	0.038 µM	0.37 µM
O=C(Nc1ccc(Cl)cc1)NS(=O)(=O)c1ccc2c(c1)CCC2	–	> 100 µM	21.5 mg/L	> 76.3 µM and 42 µg/mL	–	> 100 µM	24.1 mg/L	> 77.8 µM and 52.5 µg/mL	7.71 mg/L	> 46.4 µM and 36.6 µg/mL	–	74.6 µM	37.9 mg/L	> 100 µM and 88.1 µg/mL	–	92 µM	19.1 mg/L	98.9 µM and 40.2 µg/mL	–	> 60.8 µM
O=C(CCCCCCc1nc2ccc(Br)cc2[nH]1)NO	0.461 µM	1.54 µM	0.433 µM	5.22 µM	0.632 µM	14.6 µM	1.65 µM	7.37 µM	0.386 µM	10.6 µM	0.23 µM	> 100 µM	2.43 µM	> 100 µM	0.621 µM	5.84 µM	0.377 µM	4.18 µM	0.975 µM	5.07 µM
N/C(=N\N=C\c1ccc2c(c1)OCO2)NO	–	> 100 µM	–	–	–	66.7 µM	–	40.8 µM	–	> 100 µM	–	> 100 µM	–	> 100 µM	–	99 µM	–	63.6 µM	–	40.3 µM
COc1cc(-c2cc(-c3ccc(N(C)C)cc3)nc(N3CCC(O)CC3)c2C#N)cc(OC)c1OC	0.0224 µM	0.7 µM	0.349 µM	3.34 µM	0.953 µM	24.3 µM	0.717 µM	–	0.249 µM	1.9 µM	0.458 µM	4.07 µM	1.21 µM	> 100 µM	0.853 µM	> 79.6 µM	0.579 µM	4 µM	0.532 µM	3.42 µM
Cn1cc(-c2ccc3cc(-c4ccc(CC(=O)Nc5cc(C(C)(C)C)nn5C)cc4)cnc3c2)cn1	0.0519 µM	> 100 µM	–	–	0.409 µM	> 100 µM	0.317 µM	> 100 µM	0.165 µM	> 100 µM	0.209 µM	4.81 µM	0.159 µM	> 100 µM	0.17 µM	> 100 µM	0.0233 µM	> 100 µM	0.441 µM	> 100 µM
Cc1ccc(CCC(=O)Nc2ncc(Cc3cc(Cl)ccc3Cl)s2)o1	0.114 µM	7.36 µM	0.594 µM	6.43 µM	0.38 µM	15.1 µM	0.901 µM	–	0.233 µM	–	1.22 µM	> 100 µM	0.767 µM	> 20.4 µM	0.351 µM	> 32.9 µM	0.0966 µM	> 36.3 µM	0.194 µM	0.658 µM
COc1cc[c]([Hg][Cl])cc1	6.55 µM	23 µM	14.6 µM	28.9 µM	20.4 µM	37.8 µM	22.9 µM	50.6 µM	10.3 µM	25.5 µM	1.68 µM	4.47 µM	1.96 µM	11.5 µM	5.23 µM	18.2 µM	14.4 µM	27.8 µM	2.06 µM	4 µM
COc1c2occc2c(OC)c2c(=O)c(S(=O)(=O)NC(=O)Nc3ccc(Cl)cc3)coc12	–	> 10 µM	–	> 10 µM	–	> 10 µM	–	> 10 µM	–	> 10 µM	–	> 10 µM	–	> 10 µM	–	> 10 µM	–	> 10 µM	–	> 10 µM
CCN1CCC(C(=O)Nc2n[nH]c3nnc(-c4cccc(F)c4F)cc23)CC1	> 25 µM	> 25 µM	> 25 µM	> 25 µM	7.62 µM	> 19.3 µM	3.41 µM	11.9 µM	7.96 µM	> 25 µM	4.42 µM	> 20.1 µM	7.04 µM	22 µM	10.3 µM	24.6 µM	6.1 µM	> 18.2 µM	4.61 µM	9.17 µM
COc1ccc(/C=C2/SC(=Nc3c(C)nn(-c4ccccc4)c3N)NC2=O)cc1	2.82 µM	15.7 µM	2.83 µM	19 µM	4.12 µM	39.9 µM	8.28 µM	45.3 µM	3.04 µM	10.7 µM	3.96 µM	45.3 µM	8.21 µM	> 100 µM	3.73 µM	23.1 µM	3.5 µM	13.6 µM	3.84 µM	19.2 µM
COc1ccc(CCNc2nc3ccccc3c3[nH]c4ccccc4c23)cc1OC	11.4 µM	24.8 µM	–	–	10.9 µM	24.4 µM	7.82 µM	25 µM	2.1 µM	5.93 µM	15.3 µM	34.2 µM	3.15 µM	12.8 µM	3.85 µM	15.8 µM	1.53 µM	3.58 µM	1.57 µM	3.46 µM
CCN(CC)CCn1c(=N)n(CC(O)c2ccc(Cl)c(Cl)c2)c2ccccc21 (configuration not stated)	11.8 µM	25.1 µM	6.97 µM	20.4 µM	11.8 µM	24.8 µM	17 µM	36.9 µM	4.97 µM	17.9 µM	4.68 µM	19.3 µM	10.6 µM	24.3 µM	13.9 µM	26.8 µM	9.86 µM	22.2 µM	2.05 µM	3.96 µM
O=C(Nc1nc2ncn(CCOC(=O)c3ccccc3)c2c(=O)[nH]1)c1ccccc1	–	> 100 µM	–	> 100 µM	–	> 100 µM	–	> 100 µM	–	> 100 µM	–	> 100 µM	–	–	–	> 100 µM	–	> 100 µM	–	23.6 µM
COc1c(O)c2ccccc2c2cc(O)ccc12	–	22.9 µM	–	11.4 µM	–	31.3 µM	–	31.6 µM	–	23.3 µM	–	38.4 µM	–	22.8 µM	–	21 µM	–	25.7 µM	–	31.5 µM
N#Cc1c(N)nn(C(=O)c2ccc(NC(=O)c3ccccn3)cc2)c1-c1ccc(Cl)cc1	2.06 µM	6.3 µM	1.79 µM	5.27 µM	2.53 µM	8.37 µM	3.08 µM	31 µM	4.02 µM	61.7 µM	2.79 µM	9.15 µM	2.33 µM	6.02 µM	2.7 µM	7.29 µM	–	–	–	–
Cc1cc2c(-c3nc4ccccc4[nH]3)c(O)c(O)cc2c(O)c1-c1c(C)cc2c(-c3nc4ccccc4[nH]3)c(O)c(O)cc2c1O	0.0496 µM	0.628 µM	0.042 µM	0.218 µM	0.0717 µM	0.864 µM	0.0563 µM	0.827 µM	0.00751 µM	0.112 µM	0.0168 µM	0.741 µM	0.0384 µM	16.8 µM	0.0205 µM	10.1 µM	0.017 µM	0.775 µM	0.0231 µM	0.913 µM
Cc1ncc(C(=O)Nc2ccc(CN3CCN(C)CC3)c(C(F)(F)F)c2)cc1C#Cc1c(N)ncc2ccc(C#N)cc12	0.89 µM	7.22 µM	1.26 µM	4.99 µM	0.988 µM	11.2 µM	0.451 µM	2.3 µM	4.05 µM	12.1 µM	> 14.5 µM	> 50 µM	0.975 µM	11 µM	0.976 µM	7.43 µM	0.005 µM	2.09 µM	0.059 µM	8.05 µM
CCOP1(=O)OCC2OC(n3cnc4c(N)ncnc43)C(O)C2O1 (configuration not stated)	–	> 100 µM	–	> 100 µM	–	> 100 µM	–	> 100 µM	–	> 100 µM	–	> 100 µM	–	> 100 µM	–	> 100 µM	–	> 100 µM	–	> 100 µM
COC1CC(OC2OC(CO)C(O)C(O)C2O)/C(=C\C#N)C(O)C1OC (configuration not stated)	–	> 100 µM	–	> 100 µM	–	> 100 µM	–	> 100 µM	–	> 100 µM	–	> 100 µM	–	> 100 µM	–	> 100 µM	–	> 100 µM	–	> 100 µM
NC(=O)C/C=C/CC(N)=O	–	> 100 µM	–	> 100 µM	–	> 100 µM	–	> 100 µM	–	> 100 µM	–	> 100 µM	–	> 100 µM	–	> 100 µM	–	> 100 µM	–	> 100 µM
CCc1cc(C(N)=O)ccc1-n1nc(C(C)C)c2c(-n3cnc(-c4cnn(C)c4)c3)ccnc21	5.61 µM	> 100 µM	3.25 µM	> 100 µM	7.92 µM	> 100 µM	3.68 µM	> 100 µM	0.566 µM	> 100 µM	1.83 µM	> 100 µM	6.24 µM	> 100 µM	0.604 µM	> 100 µM	0.463 µM	6.28 µM	0.387 µM	–
O=P(O)(O)OC1C(OP(=O)(O)O)C(OP(=O)(O)O)C(OP(=O)(O)O)C(OP(=O)(O)O)C1OP(=O)(O)O (configuration not stated)	> 1560 µM	> 2000 µM	> 2000 µM	> 2000 µM	> 2000 µM	> 2000 µM	> 1070 µM	> 1850 µM	> 2000 µM	> 2000 µM	> 2000 µM	> 2000 µM	> 100 µM	> 2000 µM	> 2000 µM	> 2000 µM	> 1190 µM	> 2000 µM	> 100 µM and > 500 µM and 1940 µM	> 2000 µM
COc1ccccc1/C=C1\COc2ccc(O)c(O)c2C1=O	1.48 µM	4.15 µM	1.04 µM	2.24 µM	3.1 µM	9.54 µM	1.9 µM	5.08 µM	1.83 µM	4.09 µM	2.47 µM	> 100 µM	1.86 µM	9.55 µM	2.32 µM	> 100 µM	1.73 µM	3.89 µM	3.14 µM	8.98 µM
CC1(CCCC2(C)CCNC2=O)OCCO1 (configuration not stated)	–	> 10 µM	–	> 10 µM	–	> 10 µM	–	> 10 µM	–	> 10 µM	–	> 10 µM	–	> 10 µM	–	> 10 µM	–	> 10 µM	–	> 10 µM
COc1ccc(C(=O)/C=C/c2ccc(Cl)cc2)cc1S(N)(=O)=O	2.72 µM	10.6 µM	1.89 µM	5.76 µM	2.51 µM	8.62 µM	3.66 µM	14.8 µM	2.58 µM	6.39 µM	3.2 µM	14.4 µM	3.46 µM	12.6 µM	3.43 µM	13.2 µM	1.73 µM	3.78 µM	2.03 µM	4.84 µM
CC(=O)OCC1OC(n2cc(F)c(=O)[nH]c2=O)C(OC(C)=O)C1OC(C)=O (configuration not stated)	–	> 100 µM	–	> 96.1 µM	–	> 96.5 µM	–	> 100 µM	–	> 100 µM	–	> 100 µM	–	> 90.3 µM	–	> 100 µM	–	> 100 µM	–	> 83.2 µM
O=C1CCC/C=C\C[C@H]2C=C(Cl)C(=O)/C2=C/C[C@H](CCCCC(F)(F)F)OC(=O)CCC/C=C\C[C@H]2C=C(Cl)C(=O)/C2=C/C[C@H](CCCCC(F)(F)F)O1	–	–	0.133 µM	0.281 µM	0.274 µM	1.46 µM	0.263 µM	1.23 µM	0.257 µM	1.03 µM	0.204 µM	1.16 µM	0.24 µM	3.93 µM	0.264 µM	1.42 µM	0.291 µM	1.38 µM	0.246 µM	0.859 µM
CC(C)Oc1cc(OCC(=O)O)cc(C(=O)N(CCC(N)=O)C(=O)Nc2ccc(C(=O)O)cc2OC(C)C)c1	–	–	> 100 µM	> 100 µM	> 100 µM	> 100 µM	> 100 µM	> 100 µM	> 100 µM	> 100 µM	> 100 µM	> 100 µM	> 100 µM	> 100 µM	> 100 µM	> 100 µM	> 100 µM	> 100 µM	> 100 µM	> 100 µM

Source: PubChem BioAssay (NCI)
